Assay results: patent publication US11369654B2, “Application method of Dendrobium candidum in preparing medicine for treating hypertension” (Hangzhou Danhe Pharmaceutical CO., Ltd., priority 2017, dated 2022)
“And” between values parts separate entries of the source, which are not always exact repeats. Equal values may be shown once.

Experiments:
[1] = system: Spontaneously Hypertensive Rats (SHR); test: Experiment 1: antihypertensive effect of Dendrobium officinale extraction methods, tail artery blood pressure; type: in vivo, rat
Experimental: (§1) Rats: Spontaneously Hypertensive Rats (SHR), Wistar rats are used as normal controls.
Rat Blood Pressure Measurement: BP-98A Non-invasive Tail Artery Blood Pressure Meter, Japan Soft Rotation Co., Ltd.
Group therapy is described in the following description. Blood pressure and body weight are measured and grouped after one week of adaptive feeding in all rats. The SHR rats are divided into the water extracting group after crushing and flattening, the water extracting group after crushing, and the water extracting group after grinding into powder, all Chinese medicine groups are given 0.8 g/kg body weight of crude drug, and the amlodipine besylate tablets 0.5 mg/kg body weight are given intragastrically in amlodipine group, the hypertensive model control group is given with the same amount of saline, while the normal control group is given with the same amount of saline. Eight rats in each group were treated for 2 weeks. Blood pressure measurement: The rats are preheated at 38° C. for 5-10 minutes to avoid blood flow in the tail of the rat. The blood pressure of the rats is measured three times in a waking and quiet state, and the average value of the three measurement times is used as the blood pressure of the rats. Blood pressure is measured once a week and once 2 hours after administration.

[2] = system: Spontaneously Hypertensive Rats (SHR); test: Experiment 5: antihypertensive effect of the sample of Example 2 on SHR; type: in vivo, rat
Experimental: as §1
Rat Blood Pressure Measurement: BP-98A Non-invasive Tail Artery Blood Pressure Meter, Japan Soft Rotation Co., Ltd
Group therapy is described in the following description. Blood pressure and body weight are measured and grouped after one week of adaptive feeding in all rats. […] Eight rats in each group are treated for 2 weeks.
The following description discussed with the blood pressure measurement. The rats are preheated at 38° C. for 5-10 minutes to avoid blood flow in the tail of the rat. The blood pressure of the rats is measured three times in a waking and quiet state, and the average value of three times was used as the blood pressure of the rats. Blood pressure is measured twice a week, once 2 hours after administration and once 24 hours after administration, to observe the immediate antihypertensive effect and after 24 hours antihypertensive effect (and the peak-to-valley ratio).
The following description discusses with the trough-peak ratio calculation of depressurization amplitude. The difference of blood pressure before treatment minus 24 hours after administration is the trough of the range of blood pressure reduction, which is the lowest point before the next administration; the difference of blood pressure before treatment and 2 hours after administration is the peak value of blood pressure reduction, that is, the maximum point of blood pressure reduction after administration. Valley value of depressurization amplitude divided by peak value of depressurization amplitude is equal to valley-peak ratio of depressurization amplitude.

[3] = 2 h after administration, treatment for 1 week, 0.8 g/kg crude drug, amlodipine 0.5 mg/kg
[4] = 2 h after administration, treatment for 2 weeks, 0.8 g/kg crude drug, amlodipine 0.5 mg/kg
[5] = 2 h after administration, treatment for 2 weeks, 0.8 g/kg crude drug, amlodipine 0.5 mg/kg, listed as amlodipine
[6] = 2 h after administration, treatment for 1 week, medium dose 0.8 g/kg crude drug, amlodipine 0.5 mg/kg
[7] = 2 h after administration, treatment for 2 weeks, medium dose 0.8 g/kg crude drug, amlodipine 0.5 mg/kg
[8] = 24 h after administration, treatment for 1 week, medium dose 0.8 g/kg crude drug, amlodipine 0.5 mg/kg
[9] = 24 h after administration, treatment for 2 weeks, medium dose 0.8 g/kg crude drug, amlodipine 0.5 mg/kg
[10] = before treatment, medium dose group 0.8 g/kg crude drug, amlodipine group 0.5 mg/kg
[11] = treatment for 1 week, medium dose 0.8 g/kg crude drug, amlodipine 0.5 mg/kg
[12] = treatment for 2 weeks, medium dose 0.8 g/kg crude drug, amlodipine 0.5 mg/kg

Compound `CCOC(=O)C1=C(COCCN)NC(C)=C(C(=O)OC)C1c1ccccc1Cl` (stereo not drawn) [Amlodipine, amlodipine besylate] has a diastolic blood pressure [1, 3] of 142.6 ± 5.78 mmHg, a systolic blood pressure [1, 3] of 173.8 ± 5.26 mmHg and a diastolic blood pressure [1, 4] of 143.7 ± 4.28 mmHg. It also gave a systolic blood pressure [1, 4] of 175.5 ± 4.48 mmHg, a diastolic blood pressure [1, 5] of 143.7±4.28 mmHg and a systolic blood pressure [1, 5] of 175.5±4.48 mmHg. For the same compound, the diastolic blood pressure ([1]; before treatment) was 157.4 ± 5.67 mmHg, the systolic blood pressure ([1]; before treatment) was 206.3 ± 6.26 mmHg and the diastolic blood pressure [2, 6] was 146.8 mmHg. For the same compound, the systolic blood pressure [2, 6] was 178.2 mmHg, the diastolic blood pressure [2, 7] was 148.5 mmHg and the systolic blood pressure [2, 7] was 180.5 mmHg. It also gave a diastolic blood pressure [2, 8] of 157.1 mmHg, a systolic blood pressure [2, 8] of 203.5 mmHg and a diastolic blood pressure [2, 9] of 157.6 mmHg. The systolic blood pressure [2, 9] was 205.6 mmHg, the diastolic blood pressure [2, 10] was 159.6 mmHg and the systolic blood pressure [2, 10] was 212.7 mmHg and 212.7 ± 6.87 mmHg. For the same compound, the “2-hour hypotensive amplitude (peak of systolic blood pressure reduction)” value [2, 11] was 34.5 mmHg, the “24-hour hypotensive amplitude (trough of systolic blood pressure reduction)” value [2, 11] was 9.2 mmHg and the “valley-peak ratio of Systolic Blood Pressure Reduction” value [2, 11] was 0.27. The “2-hour hypotensive amplitude (peak of systolic blood pressure reduction)” value [2, 12] was 32.2 mmHg, the “24-hour hypotensive amplitude (trough of systolic blood pressure reduction)” value [2, 12] was 7.1 mmHg and the “valley-peak ratio of Systolic Blood Pressure Reduction” value [2, 12] was 0.22.
